Data published in patent US20040009507A1, “Concatenated nucleic acid sequence” (Domantis, Ltd., priority 2000, published 2004).
Positions of bridges follow the written chain, without caps; N, C: chain ends. Residues, ends and D or L forms follow the SMILES beside them.

Tests used:
[1] = target: T1, EC-EpoR-Fc (Homo sapiens, UniProt P19235); test: Competition ELISA with synthetic trMP peptide, phage binding to immobilised EC-EpoR-Fc
T1 construct: (EC-EpoR, amino acids 1 to 225); made in house; host or cells: Pichia pastoris X-33 (pPICZαA, secreted)
T1 sequence (P19235 25-249): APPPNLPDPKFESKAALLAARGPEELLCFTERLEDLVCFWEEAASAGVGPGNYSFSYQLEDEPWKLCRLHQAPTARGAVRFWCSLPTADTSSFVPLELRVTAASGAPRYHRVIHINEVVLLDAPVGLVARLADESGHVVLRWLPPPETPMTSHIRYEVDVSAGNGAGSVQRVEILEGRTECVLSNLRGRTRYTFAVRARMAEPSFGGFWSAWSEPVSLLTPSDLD
Experimental: Without a crystal structure of the MP/Ec-EpoR-Fc complex, it is however unclear whether the contribution of an MP residue in these parts to EC-EpoR-Fc binding is related to direct peptide-receptor interaction or to intra-molecular interactions. In an attempt to delineate the MP peptide binding site on EC-EpoR-Fe, a competition ELISA using a synthetic truncated version of the MP peptide (trMP, from A3 to Y28) was performed. […] A similar result (i.e. binding outside the biological ligand-binding site) has been reported for the symmetrical molecule SB-247464 which recognises the homodimeric G-CSF receptor (Tian et al., 1998). Large and complex proteins with modular architecture indeed appear to have multiple ligand-binding sites located at the slits between symmetrical modules.
For competition ELISA with synthetic trMP peptide (see below), serial dilutions of MP peptide (starting from 1 mM) were mixed with 2.5×10^8 phage in 2% MPBS, then added to pre-blocked EC-EpoR-Fc-coated wells for 2 hours. Bound phage were detected as described above. […] Bound EC-EpoR-Fc was detected with protein A-horseradish peroxidase conjugate ( 1/4000 dilution, Sigma), and o-phenylene diamine dihydrochloride (OPD) as substrate. After 10-15 minutes, the reactions were stopped with 50 μl of 4 N H2SO4 and absorbances were measured at 492 nm.

[2] = target: T2, ferritin (Equus caballus, UniProt P02791+Q8MIP0); test: Apparent dissociation constant of n-unit HKPRKE MBP fusions for ferritin; design: species or system horse; details: n-unit of HKPRKE motif fused to maltose-binding protein
T2 construct: ferritin (from horse spleen, Sigma cat. F-4503); purchased Sigma F-4503; host or cells: horse spleen
Text: In contrast, the results from the Fd-1×6-mer, Fd-2×6-mer, and Fd-4×6-mer peptide libraries indicate that concatenation is crucial to reach the selection threshold for binding to ferritin. […] By competition ELISA, we observed that these peptide constructs had affinities to ferritin very similar to that of peptide F6. […] In a randomised polypeptide, the likelihood that down-mutations will offset up-mutations increases with its length, so that ultimately most longer polypeptides will have average sequence profiles. […]
For competition ELISA with ferritin-binding peptide, serial dilutions of MBP-fusions (see below) were incubated with 10 nM biotinylated ferritin in 2% MPBS overnight at 4° C., then added to pre-blocked MBP-(HKPRKE)8-coated wells for 30 min. Bound biotinylated ferritin was detected by incubation with streptavidin horseradish peroxidase conjugate (Sigma) and OPD.
Apparent dissociation constants were calculated using the BIAevaluation program and the 1:1 Langmuir dissociation model from sensorgrams (BIAcore) collected upon immobilisation of 200-400 resonance units (RU) of biotinylated ligands (sEPOR-Fc or MBP-fusion) on SA-sensor chips followed by injection of various analytes (sEPOR-Fc, MBP-fusion, 0.1 to 2 μM concentration range) diluted in HBS-EP buffer (BIAcore), at a flow rate of 80 μl/min at 25° C.

T2 sequence (P02791 2-175 limits assumed): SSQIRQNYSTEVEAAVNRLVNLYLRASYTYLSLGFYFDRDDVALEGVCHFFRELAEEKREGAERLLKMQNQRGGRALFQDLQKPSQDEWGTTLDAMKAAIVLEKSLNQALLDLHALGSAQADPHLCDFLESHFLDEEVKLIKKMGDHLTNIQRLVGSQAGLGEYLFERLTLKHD
T2 sequence (Q8MIP0 whole entry, the tested form may be a part): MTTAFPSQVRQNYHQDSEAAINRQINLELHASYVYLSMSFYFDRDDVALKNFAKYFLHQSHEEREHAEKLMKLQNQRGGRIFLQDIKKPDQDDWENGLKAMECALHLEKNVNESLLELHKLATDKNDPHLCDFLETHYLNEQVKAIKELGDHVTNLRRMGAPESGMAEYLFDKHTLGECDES

IC50 ([1]; read-out: IC50 for blocking MP phage-peptide binding to immobilised EC-EpoR-Fc) [µM] | effect on signal of phage displaying the EMP1 peptide ([1]; trMP concentration up to 1 mM) | Kd [2] [µM] | Compound
10 | no reduction in signal |  | CC(C)C[C@H](NC(=O)[C@@H](NC(=O)[C@H](C)NC(=O)CNC(=O)[C@H](Cc1c[nH]cn1)NC(=O)[C@@H]1CSSC[C@H](NC(=O)[C@H](C)N)C(=O)N[C@@H](Cc2c[nH]cn2)C(=O)NCC(=O)N[C@@H](C)C(=O)N[C@@H]([C@@H](C)O)C(=O)N[C@@H](CC(C)C)C(=O)N[C@@H](CCC(=O)O)C(=O)N[C@@H](CCC(N)=O)C(=O)N[C@@H]([C@@H](C)O)C(=O)N[C@@H](Cc2ccc(O)cc2)C(=O)N[C@@H](C)C(=O)N[C@@H](CC(C)C)C(=O)N2CCC[C@H]2C(=O)N[C@@H](CC(C)C)C(=O)N[C@@H](C)C(=O)N1)[C@@H](C)O)C(=O)N[C@@H](CCC(=O)O)C(=O)N[C@@H](CCC(N)=O)C(=O)N[C@H](C(=O)N[C@@H](Cc1ccc(O)cc1)C(=O)O)[C@@H](C)O [trMP, NH2-ACHGATLEQTYALPL ACHGATLEQTY-CO2H] (H-ACHGATLEQTYALPLACHGATLEQTY-OH; disulfide 2-17 (inferred))
 |  | ~0.5 | (HKPRKE)4 [F6 peptide]
